The target of the experiment is GCN2 kinase (Homo sapiens, UniProt Q9P2K8). In words: GCN2 enzyme inhibition assay (Transcreener ADP2 fluorescence polarization). Type of experiment: biochemical. As to conditions: 280 μM ATP; for IC50: compounds of Formula II. In a few lines: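 ADP formation read by Transcreener FP after a 1 h, 25 °C kinase reaction containing 280 μM ATP, 200 μM (RS)7 substrate and 4 nM GCN2, pH 7.5 Tris buffer. Compounds (0–8 μM final) were added 10 min before ATP. Percent inhibition gave IC50 and apparent Ki via tight-binding fit.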
(In general: Polarisation of emitted light reports the rotation of a fluorescent probe.)

Setting [1] is: Enzyme activity for compounds of Formula IV, Ki(app), 25° C.

SMILES strings stand for the structures.

Sequence of GCN2 kinase (Q9P2K8 whole entry): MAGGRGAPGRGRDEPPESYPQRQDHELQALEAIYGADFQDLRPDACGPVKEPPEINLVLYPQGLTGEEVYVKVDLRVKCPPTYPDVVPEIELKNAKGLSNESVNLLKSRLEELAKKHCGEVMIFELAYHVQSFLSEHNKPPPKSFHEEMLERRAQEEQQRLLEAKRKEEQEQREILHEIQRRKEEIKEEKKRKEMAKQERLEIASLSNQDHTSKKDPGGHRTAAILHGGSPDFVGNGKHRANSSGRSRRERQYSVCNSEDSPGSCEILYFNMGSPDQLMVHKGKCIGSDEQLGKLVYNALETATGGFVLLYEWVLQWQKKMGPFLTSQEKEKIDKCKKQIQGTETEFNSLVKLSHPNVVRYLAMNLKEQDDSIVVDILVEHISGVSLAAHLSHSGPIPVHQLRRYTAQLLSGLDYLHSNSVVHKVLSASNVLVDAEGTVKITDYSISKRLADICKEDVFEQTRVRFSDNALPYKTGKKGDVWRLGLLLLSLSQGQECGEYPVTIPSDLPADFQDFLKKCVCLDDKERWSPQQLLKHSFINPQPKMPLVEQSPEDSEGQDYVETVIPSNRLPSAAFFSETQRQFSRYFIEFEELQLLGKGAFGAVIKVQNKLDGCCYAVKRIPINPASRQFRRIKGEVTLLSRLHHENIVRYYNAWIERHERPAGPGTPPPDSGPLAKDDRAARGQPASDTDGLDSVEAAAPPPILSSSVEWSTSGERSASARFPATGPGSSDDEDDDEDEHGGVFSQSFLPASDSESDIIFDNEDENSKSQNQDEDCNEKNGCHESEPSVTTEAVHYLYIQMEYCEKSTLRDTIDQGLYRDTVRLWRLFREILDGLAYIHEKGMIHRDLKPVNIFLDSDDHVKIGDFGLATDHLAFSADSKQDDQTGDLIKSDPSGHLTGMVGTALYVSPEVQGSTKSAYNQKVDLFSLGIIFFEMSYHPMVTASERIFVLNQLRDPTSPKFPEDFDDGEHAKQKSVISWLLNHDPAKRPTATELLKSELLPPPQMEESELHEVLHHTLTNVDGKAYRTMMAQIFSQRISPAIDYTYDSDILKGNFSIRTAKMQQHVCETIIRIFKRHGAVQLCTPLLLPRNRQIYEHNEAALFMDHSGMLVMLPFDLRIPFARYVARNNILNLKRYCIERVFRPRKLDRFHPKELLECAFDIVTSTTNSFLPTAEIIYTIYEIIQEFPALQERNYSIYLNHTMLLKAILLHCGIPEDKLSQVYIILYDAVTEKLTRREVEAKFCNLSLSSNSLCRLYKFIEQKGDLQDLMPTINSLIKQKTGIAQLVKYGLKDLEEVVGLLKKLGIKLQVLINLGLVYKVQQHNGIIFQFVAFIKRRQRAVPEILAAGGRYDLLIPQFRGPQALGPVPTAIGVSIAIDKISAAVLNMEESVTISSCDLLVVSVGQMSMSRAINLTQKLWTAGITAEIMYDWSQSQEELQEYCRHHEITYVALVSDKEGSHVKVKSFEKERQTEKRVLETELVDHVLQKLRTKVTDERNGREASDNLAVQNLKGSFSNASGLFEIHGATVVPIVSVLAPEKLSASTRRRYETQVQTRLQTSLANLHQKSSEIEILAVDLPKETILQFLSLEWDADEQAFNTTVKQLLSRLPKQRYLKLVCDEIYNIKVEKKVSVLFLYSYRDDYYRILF

In the case of `CC1C(c2cn[nH]c2)OCCN1c1ccnc(-c2cnc3cnc(Br)cn23)n1` (single isomer, unassigned) [IV-328, 4-(2-(6-Bromoimidazo[1,2-a]pyrazin-3-yl)pyrimidin-4-yl)-3-methyl-2-(1H-pyrazol-4-yl)morpholine], the Ki under setting [1] is under 10 nM.

Under setting [1], `CC1C(c2cn[nH]c2)OCCN1c1ccnc(-c2cnc3cnc(Br)cn23)n1` (single isomer, unassigned) [IV-329, 4-(2-(6-Bromoimidazo[1,2-a]pyrazin-3-yl)pyrimidin-4-yl)-3-methyl-2-(1H-pyrazol-4-yl)morpholine] came in with a Ki of 10 to 100 nM.

Turning to `CC1CNC(c2cn[nH]c2)CN1c1ccnc(-c2cnc3cnc(C(F)(F)F)cn23)n1` (single isomer, unassigned) [IV-333, 3-(4-(2-Methyl-5-(1H-pyrazol-4-yl)piperazin-1-yl)pyrimidin-2-yl)-6-(trifluoromethyl)imidazo[1,2-a]pyrazine], the Ki under setting [1] lay in the range of 10 to 100 nM.

Under setting [1], `CC1CN(c2nc(-c3cnc4cnc(C(F)(F)F)cn34)ncc2F)CC(c2cn[nH]c2)O1` (single isomer, unassigned) [IV-334, 4-(5-Fluoro-2-(6-(trifluoromethyl)imidazo[1,2-a]pyrazin-3-yl)pyrimidin-4-yl)-2-methyl-6-(1H-pyrazol-4-yl)morpholine] registered a Ki of 100 to 1000 nM.

`CC1CN(c2nc(-c3cnc4cnc(C(F)(F)F)cn34)ncc2F)CC(c2cn[nH]c2)O1` (single isomer, unassigned) [IV-335, 4-(5-Fluoro-2-(6-(trifluoromethyl)imidazo[1,2-a]pyrazin-3-yl)pyrimidin-4-yl)-2-methyl-6-(1H-pyrazol-4-yl)morpholine]: under setting [1], the Ki was in the range of 10 to 100 nM.

Consider `CC1NC(c2cn[nH]c2)C(C)N(c2ccnc(-c3cnc4cnc(C(F)(F)F)cn34)n2)C1C` (single isomer, unassigned) [IV-336, 6-(Trifluoromethyl)-3-(4-(2,3,6-trimethyl-5-(1H-pyrazol-4-yl)piperazin-1-yl)pyrimidin-2-yl)imidazo[1,2-a]pyrazine], for which the Ki under setting [1] lay within 100 to 1000 nM.

Compound `CC1NC(c2cn[nH]c2)C(C)N(c2ccnc(-c3cnc4cnc(C(F)(F)F)cn34)n2)C1C` (single isomer, unassigned) [IV-337, 6-(Trifluoromethyl)-3-(4-(2,3,6-trimethyl-5-(1H-pyrazol-4-yl)piperazin-1-yl)pyrimidin-2-yl)imidazo[1,2-a]pyrazine] gave a Ki under setting [1] of under 10 nM.

Under setting [1], `CS(=N)(=O)CC1CCCN(c2ccnc(-c3cnc4cnc(C(F)F)cn34)n2)C1` (single isomer, unassigned) [IV-338, ((1-(2-(6-(Difluoromethyl)imidazo[1,2-a]pyrazin-3-yl)pyrimidin-4-yl)piperidin-3-yl)methyl)(imino)(methyl)-λ^6-sulfanone] came in with a Ki of 100 to 1000 nM.

In turn, `CS(=N)(=O)CC1CCCN(c2ccnc(-c3cnc4cnc(C(F)F)cn34)n2)C1` (single isomer, unassigned) [IV-339, ((1-(2-(6-(Difluoromethyl)imidazo[1,2-a]pyrazin-3-yl)pyrimidin-4-yl)piperidin-3-yl)methyl)(imino)(methyl)-λ^6-sulfanone] came in with a Ki under setting [1] of 100 to 1000 nM.

Consider `CC1CC(CS(C)(=N)=O)C(C)N(c2ccnc(-c3cnc4cnc(C(F)F)cn34)n2)C1` (single isomer, unassigned) [IV-367, ((1-(2-(6-(Difluoromethyl)imidazo[1,2-a]pyrazin-3-yl)pyrimidin-4-yl)-2,5-dimethylpiperidin-3-yl)methyl)(imino)(methyl)-λ^6-sulfanone], for which the Ki under setting [1] was in the range of 100 to 1000 nM.

Compound `CC1CN(c2nccc(-c3cnc4cnc(C(F)(F)F)cn34)n2)C(C)C(c2cn[nH]c2)N1` (single isomer, unassigned) [IV-370, 3-(2-(2,5-Dimethyl-3-(1H-pyrazol-4-yl)piperazin-1-yl)pyrimidin-4-yl)-6-(trifluoromethyl)imidazo[1,2-a]pyrazine] had a Ki under setting [1] of 100 to 1000 nM.

`CC1CN(c2ccnc(-c3cnc4cnc(C(F)(F)F)cn34)n2)CC(c2cn[nH]c2C(F)(F)F)N1` (single isomer, unassigned) [IV-475, 3-(4-(3-Methyl-5-(5-(trifluoromethyl)-1H-pyrazol-4-yl)piperazin-1-yl)pyrimidin-2-yl)-6-(trifluoromethyl)imidazo[1,2-a]pyrazine] showed a Ki under setting [1] of 10 to 100 nM.

`Cc1n[nH]c(C)c1C1CCCN(c2ccnc(-c3cnc4cnc(C(F)(F)F)cn34)n2)C1` (single isomer, unassigned) [IV-476, 3-(4-(3-(3,5-Dimethyl-1H-pyrazol-4-yl)piperidin-1-yl)pyrimidin-2-yl)-6-(trifluoromethyl)imidazo[1,2-a]pyrazine] had a Ki under setting [1] of under 10 nM.

The compound `Cc1n[nH]c(C)c1C1CCCN(c2ccnc(-c3cnc4cnc(C(F)(F)F)cn34)n2)C1` (single isomer, unassigned) [IV-477, 3-(4-(3-(3,5-Dimethyl-1H-pyrazol-4-yl)piperidin-1-yl)pyrimidin-2-yl)-6-(trifluoromethyl)imidazo[1,2-a]pyrazine] registered a Ki under setting [1] of 10 to 100 nM.

On to `CC1CC(C(N)=O)C(C)N(c2ccnc(-c3cnc4cnc(C(F)(F)F)cn34)n2)C1` (single isomer, unassigned) [IV-481, 2,5-Dimethyl-1-(2-(6-(trifluoromethyl)imidazo[1,2-a]pyrazin-3-yl)pyrimidin-4-yl)piperidine-3-carboxamide], for which the Ki under setting [1] is 10 to 100 nM.

For `CC1C(C(N)=O)CCCN1c1ccnc(-c2cnc3cnc(C(F)(F)F)cn23)n1` (single isomer, unassigned) [IV-498, 2-Methyl-1-(2-(6-(trifluoromethyl)imidazo[1,2-a]pyrazin-3-yl)pyrimidin-4-yl)piperidine-3-carboxamide], under setting [1], the Ki was 100 to 1000 nM.

As for `CC1CC(C(N)=O)C(C)N(c2ccnc(-c3cnc4cnc(C(F)(F)F)cn34)n2)C1` (single isomer, unassigned) [IV-500, 2,5-Dimethyl-1-(2-(6-(trifluoromethyl)imidazo[1,2-a]pyrazin-3-yl)pyrimidin-4-yl)piperidine-3-carboxamide], under setting [1], the Ki was in the range of 100 to 1000 nM.

Consider `N#C[C@@H]1CCN(c2ccnc(-c3cnc4cnc(C(F)(F)F)cn34)n2)C1` (single isomer, unassigned) [IV-521], for which the Ki under setting [1] lay in the range of 100 to 1000 nM.

Under setting [1], `FC(F)(F)c1cn2c(-c3nccc(N4CCC(c5cn[nH]c5)C4)n3)cnc2cn1` (single isomer, unassigned) [IV-541, 3-(4-(3-(1H-Pyrazol-4-yl)pyrrolidin-1-yl)pyrimidin-2-yl)-6-(trifluoromethyl)imidazo[1,2-a]pyrazine] showed a Ki of 10 to 100 nM.

Turning to `FC(F)(F)c1cn2c(-c3nccc(N4CCCC(C5CCOC5)C4)n3)cnc2cn1` (single isomer, unassigned) [IV-543, 3-(4-(3-(Tetrahydrofuran-3-yl)piperidin-1-yl)pyrimidin-2-yl)-6-(trifluoromethyl)imidazo[1,2-a]pyrazine], the Ki under setting [1] lay in the range of 100 to 1000 nM.

`FC(F)(F)c1cn2c(-c3nccc(N4CCCC(C5CCOC5)C4)n3)cnc2cn1` (single isomer, unassigned) [IV-544, 3-(4-(3-(Tetrahydrofuran-3-yl)piperidin-1-yl)pyrimidin-2-yl)-6-(trifluoromethyl)imidazo[1,2-a]pyrazine] yielded a Ki under setting [1] of 100 to 1000 nM.

In turn, `CC1CN(c2ccnc(-c3cnc4cnc(C(F)(F)F)cn34)n2)C(C)C(c2cnc[nH]2)N1` (single isomer, unassigned) [IV-549, 3-(4-(3-(1H-Imidazol-5-yl)-2,5-dimethylpiperazin-1-yl)pyrimidin-2-yl)-6-(trifluoromethyl)imidazo[1,2-a]pyrazine] had a Ki under setting [1] of 100 to 1000 nM.

Compound `CN1C(=O)CO[C@H]2CN(c3ccnc(-c4cnc5cnc(C(F)(F)F)cn45)n3)C[C@@H]21` (single isomer, unassigned) [IV-551] had a Ki under setting [1] of 100 to 1000 nM.

In the case of `C[C@H]1CCCCN1c1ccnc(-c2cnc3cnc(C(F)(F)F)cn23)n1` (single isomer, unassigned) [IV-597], under setting [1], the Ki fell in the range of 10 to 100 nM.

`CC1CN(c2ccnc(-c3cnc4cnc(C(F)(F)F)cn34)n2)C(C)C(c2c[nH]c(C(F)(F)F)n2)N1` (single isomer, unassigned) [IV-674, 3-(4-(2,5-Dimethyl-3-(2-(trifluoromethyl)-1H-imidazol-4-yl)piperazin-1-yl)pyrimidin-2-yl)-6-(trifluoromethyl)imidazo[1,2-a]pyrazine]: under setting [1], the Ki lay within 100 to 1000 nM.

Compound `C[C@@H]1CN(c2ccnc(-c3cnc4sc(C(F)F)cn34)n2)C[C@H](CNS(C)(=O)=O)C1(F)F` (stereo in doubt) [Compound V-2, N-((-1-(2-(2-(difluoromethyl)imidazo[2,1-b]thiazol-5-yl)pyrimidin-4-yl)-4,4-difluoro-5-methylpiperidin-3-yl)methyl)methanesulfonamide] registered a Ki (compounds of Formula V, 4 nM GCN2 kinase) of 100 to 1000 nM.

Broadly, the IC50 is the concentration at which inhibition is half-maximal. On to `C[C@@H]1[C@H](CNS(C)(=O)=O)CCCN1c1cc(-c2cnc3ccc(C(F)F)nn23)ncn1` (stereo in doubt) [II-754, N-(((2R,3S)-1-(6-(6-(difluoromethyl)imidazo[1,2-b]pyridazin-3-yl)pyrimidin-4-yl)-2-methylpiperidin-3-yl)methyl)methanesulfonamide], for which the IC50 (4 nM GCN2 kinase) was over 1000 nM.

As for `Cc1nn(C)cc1C1CN(c2cc(-c3cnc4ccc(C(F)(F)F)nn34)ncn2)C[C@@H](C)O1` (stereo in doubt) [II-760, (2R,6R)-2-(1,3-dimethyl-1H-pyrazol-4-yl)-6-methyl-4-(6-(6-(trifluoromethyl)imidazo[1,2-b]pyridazin-3-yl)pyrimidin-4-yl)morpholine], the IC50 (4 nM GCN2 kinase) was in the range of 10 to 1000 nM.

For `Cc1nn(C)cc1C1CN(c2cc(-c3cnc4ccc(C(F)(F)F)nn34)ncn2)C[C@@H](C)O1` (stereo in doubt) [II-761, (2S,6R)-2-(1,3-dimethyl-1H-pyrazol-4-yl)-6-methyl-4-(6-(6-(trifluoromethyl)imidazo[1,2-b]pyridazin-3-yl)pyrimidin-4-yl)morpholine], the IC50 (4 nM GCN2 kinase) was over 1000 nM.

Source of the values: patent US10988477B2 (Merck Patent GmbH, priority 2018, dated 2021).
